Source: BindingDB's records for doi:10.1021/jm00169a008 (Tsukuba Research Laboratories, 1990)
Structures can show the parent of a compound that is named as a salt.

Target: T1, Acetylcholinesterase (Mus musculus, UniProt P21836)
T1 sequence (P21836 whole entry): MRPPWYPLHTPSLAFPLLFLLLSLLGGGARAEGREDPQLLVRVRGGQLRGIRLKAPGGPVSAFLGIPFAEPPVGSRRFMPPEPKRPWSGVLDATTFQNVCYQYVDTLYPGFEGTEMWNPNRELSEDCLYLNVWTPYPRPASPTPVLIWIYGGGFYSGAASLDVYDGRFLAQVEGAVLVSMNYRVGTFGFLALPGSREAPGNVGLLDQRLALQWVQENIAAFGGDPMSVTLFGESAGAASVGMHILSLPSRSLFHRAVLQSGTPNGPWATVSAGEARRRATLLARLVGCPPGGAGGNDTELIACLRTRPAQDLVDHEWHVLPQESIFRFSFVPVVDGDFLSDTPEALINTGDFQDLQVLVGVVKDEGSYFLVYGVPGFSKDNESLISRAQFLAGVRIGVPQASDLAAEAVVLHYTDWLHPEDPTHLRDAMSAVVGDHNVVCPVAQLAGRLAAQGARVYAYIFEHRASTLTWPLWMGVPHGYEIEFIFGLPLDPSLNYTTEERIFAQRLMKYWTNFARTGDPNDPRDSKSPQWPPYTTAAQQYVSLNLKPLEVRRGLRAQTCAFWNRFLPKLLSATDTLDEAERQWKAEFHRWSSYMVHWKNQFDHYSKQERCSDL
Experiment: Enzyme Inhibition Assay

| Compound | IC50 [µM] |
| --- | --- |
| Cc1cccc(CN2CCC(CCN(C)C(=O)c3ccccc3)CC2)c1 | 0.145 |
| CN(CCC1CCN(Cc2cccc([N+](=O)[O-])c2)CC1)C(=O)c1ccccc1 [N-methyl-N-(2-{1-[(3-nitrophenyl)methyl]piperidin-4-yl}ethyl)benzamide hydrochloride] | 0.37 |
| CN(CCC1CCN(Cc2ccc([N+](=O)[O-])cc2)CC1)C(=O)c1ccccc1 [N-methyl-N-(2-{1-[(4-nitrophenyl)methyl]piperidin-4-yl}ethyl)benzamide hydrochloride] | 3.3 |
| CN(CCC1CCNCC1)C(=O)c1ccccc1 [(2E)-but-2-enedioic acid; N-methyl-N-[2-(piperidin-4-yl)ethyl]benzamide] | 26 |
| Cc1ccccc1CN1CCC(CCN(C)C(=O)c2ccccc2)CC1 [N-methyl-N-(2-{1-[(2-methylphenyl)methyl]piperidin-4-yl}ethyl)benzamide hydrochloride] | 0.77 |
| CN(CCC1CCN(C(=O)c2ccccc2)CC1)C(=O)c1ccccc1 [N-[2-(1-benzoylpiperidin-4-yl)ethyl]-N-methylbenzamide] | 52 |
| CN(CCC1CCN(CCc2ccccc2)CC1)C(=O)c1ccccc1 [N-methyl-N-{2-[1-(2-phenylethyl)piperidin-4-yl]ethyl}benzamide hydrochloride] | 13 |
